For 14 compounds, DC50 results are on record in patent publication US20240051946A1, “TARGETED PROTEIN DEGRADATION OF PARP14 FOR USE IN THERAPY” (Ribon Therapeutics, Inc., priority 2022, published 2024).

Structures are written as SMILES. Structures can show the parent of a compound that is named as a salt. A value given as a limit tells only on which side of the number the result lay.

The target in one test is T1, PARP14 (Homo sapiens, UniProt Q460N5).
T1 construct: engineered to contain a HiBiT tag on both alleles of the PARP14 gene; endogenous in cells; host or cells: Jurkat cells stably expressing LgBiT (Promega), with CRISPR/Cas9 knock-in of HiBiT at the PARP14 locus
T1 sequence (Q460N5 whole entry): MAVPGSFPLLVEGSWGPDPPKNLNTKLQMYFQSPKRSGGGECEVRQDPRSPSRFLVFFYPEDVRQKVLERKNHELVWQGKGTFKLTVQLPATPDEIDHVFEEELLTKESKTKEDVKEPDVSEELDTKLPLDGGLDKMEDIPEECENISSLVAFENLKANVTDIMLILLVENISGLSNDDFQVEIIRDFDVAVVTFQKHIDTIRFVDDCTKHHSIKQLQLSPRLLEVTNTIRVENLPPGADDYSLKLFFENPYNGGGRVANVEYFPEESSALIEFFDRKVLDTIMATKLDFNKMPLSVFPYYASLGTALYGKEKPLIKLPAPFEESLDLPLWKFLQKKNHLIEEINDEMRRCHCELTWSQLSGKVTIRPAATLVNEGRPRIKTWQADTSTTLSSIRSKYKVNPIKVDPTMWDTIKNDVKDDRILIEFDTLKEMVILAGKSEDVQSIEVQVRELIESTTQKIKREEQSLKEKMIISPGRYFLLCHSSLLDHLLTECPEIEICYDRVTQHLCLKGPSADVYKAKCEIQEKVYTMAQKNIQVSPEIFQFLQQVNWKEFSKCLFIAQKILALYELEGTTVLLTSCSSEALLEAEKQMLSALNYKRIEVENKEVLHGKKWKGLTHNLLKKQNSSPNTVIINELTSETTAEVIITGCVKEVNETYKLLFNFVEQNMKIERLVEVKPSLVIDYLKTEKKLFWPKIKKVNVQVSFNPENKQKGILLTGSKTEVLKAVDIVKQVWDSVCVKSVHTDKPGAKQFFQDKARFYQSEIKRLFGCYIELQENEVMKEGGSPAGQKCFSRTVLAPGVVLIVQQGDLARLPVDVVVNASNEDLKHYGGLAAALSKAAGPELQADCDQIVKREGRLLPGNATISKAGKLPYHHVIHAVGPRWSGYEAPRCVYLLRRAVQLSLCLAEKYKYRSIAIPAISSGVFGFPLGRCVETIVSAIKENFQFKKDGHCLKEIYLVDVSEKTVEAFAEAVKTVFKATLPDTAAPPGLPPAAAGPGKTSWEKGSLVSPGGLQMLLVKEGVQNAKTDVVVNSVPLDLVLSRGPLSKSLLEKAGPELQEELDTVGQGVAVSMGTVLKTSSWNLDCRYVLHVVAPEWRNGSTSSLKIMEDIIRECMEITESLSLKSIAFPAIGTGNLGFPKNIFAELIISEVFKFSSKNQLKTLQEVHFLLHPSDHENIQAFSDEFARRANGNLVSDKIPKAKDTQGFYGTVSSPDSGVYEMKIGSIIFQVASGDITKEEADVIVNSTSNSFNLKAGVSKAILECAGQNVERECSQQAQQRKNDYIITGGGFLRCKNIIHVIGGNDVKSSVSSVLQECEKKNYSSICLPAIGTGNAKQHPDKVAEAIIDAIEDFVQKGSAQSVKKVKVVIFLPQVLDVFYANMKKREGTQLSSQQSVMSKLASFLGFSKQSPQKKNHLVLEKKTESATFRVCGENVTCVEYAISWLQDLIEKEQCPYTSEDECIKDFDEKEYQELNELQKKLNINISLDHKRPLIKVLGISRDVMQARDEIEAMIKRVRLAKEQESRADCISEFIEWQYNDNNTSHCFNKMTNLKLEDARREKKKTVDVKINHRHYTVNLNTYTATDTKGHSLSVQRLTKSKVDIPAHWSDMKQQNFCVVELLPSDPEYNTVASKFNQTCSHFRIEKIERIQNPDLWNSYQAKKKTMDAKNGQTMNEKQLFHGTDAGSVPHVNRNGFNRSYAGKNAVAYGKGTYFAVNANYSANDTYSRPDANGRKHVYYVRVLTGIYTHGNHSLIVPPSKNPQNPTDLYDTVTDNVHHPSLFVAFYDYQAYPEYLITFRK
Briefly: HiBiT assay for the degradation of PARP14 (HiBiT tagged PARP14 in LgBiT expressing Jurkat cells). Particulars: Assay B, 37° C. for 2 or 24 hours, luminescence. It counts as cell-based. Here is the method:
Jurkat cells stably transfected with LgBiT (Promega) were engineered to contain a HiBiT tag on both alleles of the PARP14 gene (Genbank Accession Number: NM_017554) via CRISPR/Cas9 editing. The HiBiT tag is an 11 amino acid tag created by Promega that associates with LgBiT protein to form the NanoLuc® tag on the C-terminus of PARP14. Clones were isolated and confirmed for the HiBiT tag via Sanger sequencing.
Degradation of PARP14 protein was assessed by measuring the luminescence of the HiBiT tag associating with the LgBiT protein as a proxy for the PARP14 protein. Jurkat cells were diluted to 250,000 cells per mL and then added to assay plate (Corning 3574) using a Multidrop (Thermo Fisher) to add 20 μL per well of the 384 well plate, resulting in 5,000 cells per well. 20 nL of a dose response curve diluted in DMSO of each test compound was added to the cell plate using a Mosquito (TTP Labtech) and the plate was incubated at 37° C. for 2 or 24 hours. Assay plate was brought to room temperature then 5 μL per well of Live Cell Substrate (Promega) was added to the plate. Luminescence was measured on an Envision (Perkin Elmer).
(§1) The average DMSO was calculated from 32 wells containing 0.1% DMSO only in columns 12 and 24 of the assay plate. The % of DMSO values were calculated as described below: […]
(§2) The % of DMSO values were plotted as a function of compound concentration and the following 4-parameter fit was applied to derive the DC50 values:
(§3) where top, bottom, and Hill Coefficient are allowed to float. Y is the % of DMSO and X is the compound concentration.
DC50 data for the Example compounds is provided below in Table 2 (“+” is <0.03 μM; “++” is ≥0.03 μM).
`O=C1CCC(Nc2ccc(N3CCN(CCN4CCC(SCc5nc6cc(OCC7CC7)cc(F)c6c(=O)[nH]5)CC4)CC3)cc2)C(=O)N1` (centres unmarked) [Example 42, 3-((4-(4-(2-(4-(((7-(cyclopropylmethoxy)-5-fluoro-4-oxo-3,4-dihydroquinazolin-2-yl)methyl)thio)piperidin-1-yl)ethyl)piperazin-1-yl)phenyl)amino)piperidine-2,6-dione]: the DC50 (usually the concentration giving 50% degradation) was below 30 nM.

Staying with this test, now noted: Assay B, 37° C. for 2 or 24 hours, luminescence, read-out: DC50.
Regarding `O=C1CCC(Nc2ccc(N3CCC(N4CCC(SCc5nc6cc(C#CC7CC7)cc(F)c6c(=O)[nH]5)CC4)CC3)c(F)c2)C(=O)N1` (centres unmarked) [Example 67, 3-((4-(4-(((7-(cyclopropylethynyl)-5-fluoro-4-oxo-3,4-dihydroquinazolin-2-yl)methyl)thio)-[1,4′-bipiperidin]-1′-yl)-3-fluorophenyl)amino)piperidine-2,6-dione formate], the 50% degradation concentration (DC50) was below 30 nM.
On the same count and under the same terms, with `O=C1CCC(Nc2ccc(N3CCN(CCN4CCC(SCc5nc6cc(OCC7CC7)cc(F)c6c(=O)[nH]5)CC4)CC3)c(F)c2)C(=O)N1` (centres unmarked) [Example 47, 3-((4-(4-(2-(4-(((7-(cyclopropylmethoxy)-5-fluoro-4-oxo-3,4-dihydroquinazolin-2-yl)methyl)thio)piperidin-1-yl)ethyl)piperazin-1-yl)-3-fluorophenyl)amino)piperidine-2,6-dione] the figure was below 30 nM; with `O=C1CCC(Nc2ccc(N3CCC(N4CCC(CCc5nc6cc(OCC7CC7)cc(F)c6c(=O)[nH]5)CC4)CC3)c(F)c2)C(=O)N1` (centres unmarked) [Example 65, 3-((4-(4-(2-(7-(cyclopropylmethoxy)-5-fluoro-4-oxo-3,4-dihydroquinazolin-2-yl)ethyl)-[1,4′-bipiperidin]-1′-yl)-3-fluorophenyl)amino)piperidine-2,6-dione], below 30 nM; with `O=C1CCC(N2Cc3cc(N4CCC(CN5CCC(SCc6nc7cc(OCC8CC8)cc(F)c7c(=O)[nH]6)CC5)CC4)ccc3C2=O)C(=O)N1` (centres unmarked) [Example 50, 3-(5-(4-((4-(((7-(cyclopropylmethoxy)-5-fluoro-4-oxo-3,4-dihydroquinazolin-2-yl)methyl)thio)piperidin-1-yl)methyl)piperidin-1-yl)-1-oxoisoindolin-2-yl)piperidine-2,6-dione], below 30 nM.
Same read-out and setting: the figure for `O=C1CCC(Nc2ccc(N3CC(N4CCC(SCc5nc6cc(OCC7CC7)cc(F)c6c(=O)[nH]5)CC4)C3)c(F)c2)C(=O)N1` (centres unmarked) [Example 66, 3-((4-(3-(4-(((7-(cyclopropylmethoxy)-5-fluoro-4-oxo-3,4-dihydroquinazolin-2-yl)methyl)thio)piperidin-1-yl)azetidin-1-yl)-3-fluorophenyl)amino)piperidine-2,6-dione] is below 30 nM.

Another test deals with T2, catalytic domain of human PARP14 (residues 1611 to 1801) with NanoLuc tag (Homo sapiens, UniProt Q460N5).
T2 construct: expressed in transfected cells; host or cells: HEK-293T cells (ATCC), plasmid pRTX240 in pcDNA3.1(-)
T2 sequence (Q460N5 1611-1801): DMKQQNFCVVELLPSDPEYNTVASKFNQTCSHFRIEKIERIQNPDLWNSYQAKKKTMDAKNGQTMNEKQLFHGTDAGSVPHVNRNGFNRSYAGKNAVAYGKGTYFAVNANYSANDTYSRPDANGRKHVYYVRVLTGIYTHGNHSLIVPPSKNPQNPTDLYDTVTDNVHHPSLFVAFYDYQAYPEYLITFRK
The test is described as follows: NanoLuc assay for the degradation of PARP14. It counts as cell-based. Particulars: Assay A; NanoLuc-PARP14 overexpressed in HEK-293T cells; 2 hours at 37 degrees; luminescence. Here is the method:
The catalytic domain of human PARP14 (residues 1611 to 1801, GenBank Accession No. NM_017554) was inserted into the pcDNA3.1(−) vector. The insert also contained a NanoLuc tag on the N terminus of the PARP14 protein.
Degradation of PARP14 protein was assessed using measurement of the NanoLuc tag as proxy for the PARP14 protein. PARP14 with NanoLuc tag was overexpressed in […] cells (ATCC) using the plasmid described in Table 1. Plasmid DNA was diluted in empty vector DNA then added to 1.163 mL of phenol red free OptiMEM (Thermo Fisher). Plasmid DNA concentrations used in each assay described in Table 1. The plasmid DNA was mixed with 78.5 μL of Fugene HD (Promega) and allowed to incubate 5 minutes.
Next, 1.125 mL were added to 10 million 293T cells in DMEM (Thermo Fisher) supplemented with 10% FBS (VWR) and 1× Glutamax (Gibco). The transfection was incubated for 24 hrs at 37 degrees in an incubator supplemented with 5% CO2. The cells were then trypsinized and brought up in phenol red free OptiMEM media. Transfected HEK-293T cells were diluted to […] and then added to assay plate (Corning 3574) using a Multidrop (Thermo Fisher) to add 40 μL per well of the 384 well plate, resulting in 5,000 cells per well. 40 nL of a dose response curve diluted in DMSO of each test compound was added to the cell plate using a Mosquito (TTP Labtech) and the plate was incubated at 37 degrees for 2 hours. Assay plate was brought to room temperature then 20 μL per well of NanoGlo (Promega) was added to the plate. Luminescence was measured on an Envision (Perkin Elmer).
as §1, §2, §3
DC50 data for the Example compounds is provided below in Table 2 (“+” is <0.1 μM; “++” is ≥0.1 μM and <1 μM; and “+++” is ≥1 μM).
As for `CC(=O)N1CCC(COc2cc(F)c3c(=O)[nH]c(CSC4CCN(CC#Cc5ccc6c(c5)C(=O)N(C5CCC(=O)NC5=O)C6=O)CC4)nc3c2)CC1` (centres unmarked) [Example 34, 5-(3-(4-(((7-((1-acetylpiperidin-4-yl)methoxy)-5-fluoro-4-oxo-3,4-dihydroquinazolin-2-yl)methyl)thio)piperidin-1-yl)prop-1-yn-1-yl)-2-(2,6-dioxopiperidin-3-yl)isoindoline-1,3-dione], the DC50 is below 100 nM.
As to `CC(=O)N1CCC(COc2cc(F)c3c(=O)[nH]c(CSC4CCN(CC(=O)N5CCC(CN6CCN(c7cccc8c7C(=O)N(C7CCC(=O)NC7=O)C8=O)CC6)CC5)CC4)nc3c2)CC1` (centres unmarked) [Example 19, 4-(4-((1-(2-(4-(((7-((1-acetylpiperidin-4-yl)methoxy)-5-fluoro-4-oxo-3,4-dihydroquinazolin-2-yl)methyl)thio)piperidin-1-yl)acetyl)piperidin-4-yl)methyl)piperazin-1-yl)-2-(2,6-dioxopiperidin-3-yl)isoindoline-1,3-dione], the DC50 was below 100 nM.
As to `CC(=O)N1CCC(COc2cc(F)c3c(=O)[nH]c(CCC4CCN(C(=O)C5CCN(CC6CCN(c7cccc8c7C(=O)N(C7CCC(=O)NC7=O)C8=O)CC6)CC5)CC4)nc3c2)CC1` (centres unmarked) [Example 26, 4-(4-((4-(4-(2-(7-((1-acetylpiperidin-4-yl)methoxy)-5-fluoro-4-oxo-3,4-dihydroquinazolin-2-yl)ethyl)piperidine-1-carbonyl)piperidin-1-yl)methyl)piperidin-1-yl)-2-(2,6-dioxopiperidin-3-yl)isoindoline-1,3-dione], the half-maximal degradation concentration (DC50) is below 100 nM.
On the same count and under the same terms, the figure for `O=C1CCN(c2ccc(C3CCN(CC4CCN(C(=O)CN5CCC(SCc6nc7cc(OCC8CCOCC8)cc(F)c7c(=O)[nH]6)CC5)CC4)CC3)cc2)C(=O)N1` [Example 20, 1-(4-(1-((1-(2-(4-(((5-fluoro-4-oxo-7-((tetrahydro-2H-pyran-4-yl)methoxy)-3,4-dihydroquinazolin-2-yl)methyl)thio)piperidin-1-yl)acetyl)piperidin-4-yl)methyl)piperidin-4-yl)phenyl)dihydropyrimidine-2,4(1H,3H)-dione] is below 100 nM; for `O=C(CN1CCC(SCc2nc3cc(OCC4CCOCC4)cc(F)c3c(=O)[nH]2)CC1)NCCCCCCN1CCC(c2cccc(NC3CCC(=O)NC3=O)c2)CC1` (centres unmarked) [Example 16, N-(6-(4-(3-((2,6-dioxopiperidin-3-yl)amino)phenyl)piperidin-1-yl)hexyl)-2-(4-(((5-fluoro-4-oxo-7-((tetrahydro-2H-pyran-4-yl)methoxy)-3,4-dihydroquinazolin-2-yl)methyl)thio)piperidin-1-yl)acetamide] it is below 100 nM; for `CC(=O)N1CCC(COc2cc(F)c3c(=O)[nH]c(CCC4CCN(CC(=O)N5CCC(CN6CCN(c7cccc8c7C(=O)N(C7CCC(=O)NC7=O)C8=O)CC6)CC5)CC4)nc3c2)CC1` (centres unmarked) [Example 27, 4-(4-((1-(2-(4-(2-(7-((1-acetylpiperidin-4-yl)methoxy)-5-fluoro-4-oxo-3,4-dihydroquinazolin-2-yl)ethyl)piperidin-1-yl)acetyl)piperidin-4-yl)methyl)piperazin-1-yl)-2-(2,6-dioxopiperidin-3-yl)isoindoline-1,3-dione] it is below 100 nM.
With `CC(=O)N1CCC(COc2cc(F)c3c(=O)[nH]c(CSC4CCN(C(=O)C5CCN(CC6CCN(c7cccc8c7C(=O)N(C7CCC(=O)NC7=O)C8=O)CC6)CC5)CC4)nc3c2)CC1` (centres unmarked) [Example 22, 4-(4-((4-(4-(((7-((1-acetylpiperidin-4-yl)methoxy)-5-fluoro-4-oxo-3,4-dihydroquinazolin-2-yl)methyl)thio)piperidine-1-carbonyl)piperidin-1-yl)methyl)piperidin-1-yl)-2-(2,6-dioxopiperidin-3-yl)isoindoline-1,3-dione], the DC50 was below 100 nM.
For the compound `O=C(CN1CCC(SCc2nc3cc(OCC4CCOCC4)cc(F)c3c(=O)[nH]2)CC1)NCCCCN1CCC(c2ccc(NC3CCC(=O)NC3=O)cc2)CC1` (centres unmarked) [Example 7, N-(4-(4-(4-((2,6-dioxopiperidin-3-yl)amino)phenyl)piperidin-1-yl)butyl)-2-(4-(((5-fluoro-4-oxo-7-((tetrahydro-2H-pyran-4-yl)methoxy)-3,4-dihydroquinazolin-2-yl)methyl)thio)piperidin-1-yl)acetamide], the DC50 is below 100 nM.
